Results from ChEMBL document CHEMBL5380844, “Discovery of a Novel, Potent, Orally Active, and Safe Inhibitor Targeting Human Mitochondrial RNA Polymerase” (J Med Chem, 2023).
pIC50: −log10 of the molar value. Converted amounts (≈) assume the structure as drawn. The source made the active and inactive calls. The calls are words filed in the database; no cut-off is given here.

Columns and labels:
A2780 [1] = test: Antiproliferative activity against human A2780 cells incubated for 168 hrs by SRB method; assay type: functional, cell-based; settings: A2780, 168 h
A2780 [2] = test: Inhibition of colony formation in human A2780 cells assessed as appearance of smaller colonies at upto 500 nM incubated for 14 days by crystal violet staining based analysis; assay type: functional, cell-based; settings: time 14.0 day
A2780 [3] = test: Inhibition of colony formation in human A2780 cells assessed as reduction in number of colonies at upto 500 nM incubated for 14 days by crystal violet staining based analysis; assay type: functional, cell-based; settings: time 14.0 day
A2780 [4] = test: Induction of cell cycle arrest in human A2780 cells assessed as accumulation of cells at G1 phase at 50 nM measured after 96 hrs by PI staining based flow cytometry analysis (reference value: 80.81%); assay type: functional
A2780 [5] = test: Induction of cell cycle arrest in human A2780 cells assessed as accumulation of cells at G1 phase at 200 nM measured after 96 hrs by PI staining based flow cytometry analysis (reference value: 80.81%); assay type: functional
A2780 [6] = test: Induction of cell cycle arrest in human A2780 cells assessed as accumulation of cells at G2 phase at 100 nM measured after 96 hrs by PI staining based flow cytometry analysis (reference value: 4.49%); assay type: functional
A2780 [7] = test: Induction of cell cycle arrest in human A2780 cells assessed as accumulation of cells at G2 phase at 200 nM measured after 96 hrs by PI staining based flow cytometry analysis (reference value: 4.49%); assay type: functional
A2780 [8] = test: Induction of apoptosis in human A2780 cells assessed as early apoptotic cells at 200 nM incubated for 96 hrs by Annexin-V/FITC and PI staining based flow cytometry analysis (reference value: 14.14%); assay type: functional
A2780 [9] = test: Induction of apoptosis in human A2780 cells assessed as late apoptotic cells at 50 nM incubated for 96 hrs by Annexin-V/FITC and PI staining based flow cytometry analysis (reference value: 3.79%); assay type: functional
A2780 [10] = test: Induction of apoptosis in human A2780 cells assessed as late apoptotic cells at 100 nM incubated for 96 hrs by Annexin-V/FITC and PI staining based flow cytometry analysis (reference value: 3.79%); assay type: functional
A2780 [11] = test: Induction of mitochondrial membrane potential changes in human A2780 cells at upto 500 nM measured after 96 hrs by JC-1 staining based immunofluorescence assay; assay type: functional, cell-based
A2780 [12] = test: Induction of intracellular ROS generation in human A2780 cells at upto 500 nM measured after 96 hrs by DCFH-DA staining based immunofluorescence assay; assay type: functional, cell-based
A2780 [13] = test: Inhibition of MT-ND1 expression in human A2780 cells at 100 nM incubated for 12 hrs by RNA sequencing analysis; assay type: functional, cell-based
A2780 [14] = test: Inhibition of MT-ND3 expression in human A2780 cells at 100 nM incubated for 12 hrs by RNA sequencing analysis; assay type: functional, cell-based
A2780 [15] = test: Inhibition of MT-ND4L expression in human A2780 cells at 100 nM incubated for 12 hrs by RNA sequencing analysis; assay type: functional, cell-based
A2780 [16] = test: Inhibition of MT-ND5 expression in human A2780 cells at 100 nM incubated for 12 hrs by RNA sequencing analysis; assay type: functional, cell-based
A2780 [17] = test: Inhibition of MT-ATP8 expression in human A2780 cells at 100 nM incubated for 12 hrs by RNA sequencing analysis; assay type: functional, cell-based
A2780 [18] = test: Induction of mitochondrial morphological changes in human A2780 cells assessed as change in shape of mitochondria measured after 24 hrs by TEM analysis; assay type: functional, cell-based
HepG2 = test: Antiproliferative activity against human HepG2 cells incubated for 168 hrs by SRB method; assay type: functional, cell-based; settings: HepG2, 168 h
NCI-H3122 = test: Antiproliferative activity against human NCI-H3122 cells incubated for 168 hrs by SRB method; assay type: functional, cell-based; settings: NCI-H3122, 168 h
A549 = test: Antiproliferative activity against human A549 cells incubated for 168 hrs by SRB method; assay type: functional, cell-based; settings: A549, 168 h
NCI-H1975 = test: Antiproliferative activity against human NCI-H1975 cells incubated for 168 hrs by SRB method; assay type: functional, cell-based; settings: NCI-H1975, 168 h
MDA-MB-231 = test: Antiproliferative activity against human MDA-MB-231 cells incubated for 168 hrs by SRB method; assay type: functional, cell-based; settings: MDA-MB-231, 168 h
DLD-1 = test: Antiproliferative activity against human DLD-1 cells incubated for 168 hrs by SRB method; assay type: functional, cell-based; settings: DLD-1, 168 h
MIA PaCa-2 = test: Antiproliferative activity against human MIA PaCa-2 cells incubated for 168 hrs by SRB method; assay type: functional, cell-based; settings: MIA PaCa-2, 168 h
[19] = Antiproliferative activity against human PBMC cells incubated for 168 hrs by SRB method; assay type: functional, cell-based
[20] = Apparent permeability across apical to basolateral side in human Caco-2 cells at 3 uM incubated for 2 hrs by LC-MS/MS analysis; assay type: ADME, cell-based
[21] = Efflux ratio of apparent permeability across basolateral to apical side over apical to basolateral side in human Caco2 cells at 3 uM incubated for 2 hrs by LC-MS/MS analysis; assay type: ADME, cell-based; settings: Caco-2
Cytochrome P450 2D6 = Cytochrome P450 2D6 (Homo sapiens, UniProt P10635); test: Inhibition of CYP2D6 (unknown origin) using bufuralol as substrate in presence of NADPH by LC/MS/MS analysis; assay type: ADME
Chain of Cytochrome P450 2D6 (P10635 whole entry): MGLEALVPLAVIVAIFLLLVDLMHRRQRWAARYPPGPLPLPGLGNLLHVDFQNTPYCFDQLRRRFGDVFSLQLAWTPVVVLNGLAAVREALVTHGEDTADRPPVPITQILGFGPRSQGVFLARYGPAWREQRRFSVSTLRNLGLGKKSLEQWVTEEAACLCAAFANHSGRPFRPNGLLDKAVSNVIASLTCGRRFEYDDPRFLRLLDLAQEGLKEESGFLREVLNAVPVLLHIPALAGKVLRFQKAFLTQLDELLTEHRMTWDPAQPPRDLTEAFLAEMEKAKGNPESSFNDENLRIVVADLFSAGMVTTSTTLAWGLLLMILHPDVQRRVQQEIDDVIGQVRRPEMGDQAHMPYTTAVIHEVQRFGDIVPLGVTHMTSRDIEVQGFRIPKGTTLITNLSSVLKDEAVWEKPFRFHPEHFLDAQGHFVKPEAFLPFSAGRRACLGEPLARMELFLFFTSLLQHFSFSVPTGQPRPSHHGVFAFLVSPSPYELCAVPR

[22] = Solubility in PBS at pH 7.4; assay type: physicochemical
[23] = Cmax in ICR mouse at 1 mg/kg, iv measured upto 24 hrs by LC-MS/MS analysis; assay type: ADME, organism-based; parameters: time < 24 hrs, dose 1 mg/kg, route iv; settings: in vivo
[24] = MRT in ICR mouse at 10 mg/kg, po measured upto 24 hrs by LC-MS/MS analysis; assay type: ADME, organism-based; settings: in vivo
[25] = Half life in ICR mouse at 1 mg/kg, iv measured upto 24 hrs by LC-MS/MS analysis; assay type: ADME, organism-based; settings: in vivo
[26] = Oral bioavailability in ICR mouse at 10 mg/kg measured upto 24 hrs by LC-MS/MS analysis; assay type: ADME, organism-based; settings: in vivo
A2780 [27] = test: Inhibition of mitochondrial transcript in human A2780 cells by RT-qPCR analysis; assay type: functional, cell-based; settings: dose 0.01-1 µM
A2780 [28] = test: Effect on 18S mRNA level in human A2780 cells by RT-qPCR analysis; assay type: functional, cell-based
A2780 [29] = test: Effect on 28S mRNA level in human A2780 cells by RT-qPCR analysis; assay type: functional, cell-based
A2780 [30] = test: Antitumor activity against human A2780 cells xenografted in BALB/c nude mouse model assessed as decrease in tumor volume administered po daily and measured after 27 days; assay type: functional, organism-based; settings: dose 50-100 mg/kg, time 27.0 day
A2780 [31] = test: Antitumor activity against human A2780 cells xenografted in BALB/c nude mouse model assessed as reduction in tumor weight at 50 mg/kg, po administered daily and measured after 27 days relative to control; assay type: functional; parameters: scale not given: the % may be the effect or the level left; settings: time 27 day
A2780 [32] = test: Antitumor activity against human A2780 cells xenografted in BALB/c nude mouse model assessed as reduction in ATP5A level at 100 mg/kg, po by immunoblotting analysis; assay type: functional, organism-based
A2780 [33] = test: Antitumor activity against human A2780 cells xenografted in BALB/c nude mouse model assessed as reduction in UQCRC2 level at 100 mg/kg, po by immunoblotting analysis; assay type: functional, organism-based

For `Cc1ccc(-c2cc(=O)oc3cc(O[C@H](C)C(=O)N4CC5CCC(C4)N5C)ccc23)c(C)c1`, the pIC50 (A2780 [1]) was 7.17, the inhibition (A2780 [2]) was “Active” and the inhibition (A2780 [3]) was “Active”. It also gave an Activity (A2780 [4]) of 85.51%, an Activity (A2780 [5]) of 87.77% and an Activity (A2780 [6]) of 3.73%. For the same compound, the Activity (A2780 [7]) was 3.16%, the Activity (A2780 [8]) was 0.73% and the Activity (A2780 [9]) was 3.17%. For the same compound, the Activity (A2780 [10]) was 5.11%, the Activity (A2780 [11]) was “inactive” and the Activity (A2780 [12]) was “inactive”. The inhibition (A2780 [13]) was “Active”, the inhibition (A2780 [14]) was “Active” and the inhibition (A2780 [15]) was “Active”. The inhibition (A2780 [16]) was “Active”, the inhibition (A2780 [17]) was “Active” and the Activity (A2780 [18]) was “inactive”. For the same compound, the pIC50 (HepG2) was 6.82, the pIC50 (NCI-H3122) was under 5.00 and the pIC50 (A549) was 6.14. The pIC50 (NCI-H1975) was 6.97, the pIC50 (MDA-MB-231) was under 5.00 and the pIC50 (DLD-1) was 7.16. It also gave a pIC50 (MIA PaCa-2) of 7.06, a pIC50 [19] of under 4.30 and a Papp A→B at 2 h, 3 µM [20] of 6.93 ×10⁻⁶ cm/s. It also gave an efflux ratio at 2 h, 3 µM [21] of 1.2, a pIC50 (Cytochrome P450 2D6) of under 4.40 and a solubility [22] of 226 µg/mL (≈ 506 µM). It also gave a Cmax [23] of 364 ng/mL, an MRT [24] of 3.3 h and a half-life [25] of 3.12 h. The bioavailability [26] was 43.2%, the inhibition (A2780 [27]) was “Dose-Dependent Effect” and the Activity (A2780 [28]) was “inactive”. For the same compound, the Activity (A2780 [29]) was “inactive”, the Activity (A2780 [30]) was “Dose-Dependent Effect” and the Activity (A2780 [31]) was 54.82%. The Activity (A2780 [32]) was “Active” and the Activity (A2780 [33]) was “Active”.
